Results from ChEMBL document CHEMBL5608199, “Quaternized antimicrobial peptide mimics based on harmane as potent anti-MRSA agents by multi-target mechanism covering cell wall, cell membrane and intracellular targets” (Eur J Med Chem, 2024).
Values after ≈ are worked out from the molar mass of the structure shown.

Tests used:
Type in all cases: functional
Staphylococcus aureus [1] = experiment: Antibacterial activity against methicillin-resistant Staphylococcus aureus ATCC 33591 incubated for 18 hrs by two fold serial broth dilution method
Escherichia coli = experiment: Antibacterial activity against Escherichia coli ATCC 8739 incubated for 18 hrs by two fold serial broth dilution method
Staphylococcus aureus [2] = experiment: Antibacterial activity against methicillin-resistant Staphylococcus aureus ATCC 43300 incubated for 18 hrs by two fold serial broth dilution method
Staphylococcus aureus [3] = experiment: Antibacterial activity against Staphylococcus aureus ATCC 29213 incubated for 18 hrs by two fold serial broth dilution method
Staphylococcus aureus [4] = experiment: Antibacterial activity against methicillin-resistant Staphylococcus aureus CGMCC 1.12409 incubated for 18 hrs by two fold serial broth dilution method
Staphylococcus aureus [5] = experiment: Antibacterial activity against Staphylococcus aureus CMCC 26003 incubated for 18 hrs by two fold serial broth dilution method

SMILES | MIC (Staphylococcus aureus [1]) [µg/mL] | MIC (Escherichia coli) [µg/mL] | MIC (Staphylococcus aureus [2]) [µg/mL] | MIC (Staphylococcus aureus [3]) [µg/mL] | MIC (Staphylococcus aureus [4]) [µg/mL] | MIC (Staphylococcus aureus [5]) [µg/mL]
CCCC[n+]1ccc2c3ccccc3n(CCN(CC)CC)c2c1C.[Br-] | 64 | > 128 | 128 | > 128 | 64 | 64
CCCCC[n+]1ccc2c3ccccc3n(CC[N+](C)(C)CCCCC)c2c1C.[Br-].[Br-] | > 128 | > 128 | > 128 | > 128 | > 128 | > 128
Cc1c2c(cc[n+]1C)c1ccccc1n2CC[N+](C)(C)C.[I-].[I-] | > 128 | > 128 | > 128 | > 128 | > 128 | > 128
Cc1nccc2c3ccccc3n(CCN(C)C)c12 | > 128 | 64 (≈ 253 µM) | > 128 | > 128 | > 128 | > 128
Cc1c2c(cc[n+]1C)c1ccccc1n2CCCCCCCn1c2ccccc2c2cc[n+](C)c(C)c21.[I-].[I-] | 0.5 | 16 | 2 | 8 | 1 | 0.5
CCCCC[n+]1ccc2c3ccccc3n(CCN(CC)CC)c2c1C.[Br-] | 32 | 128 | 32 | 64 | 64 | 16
Cc1nccc2c3ccccc3n(CCCCCCCCn3c4ccccc4c4ccnc(C)c43)c12 | > 128 | > 128 | > 128 | > 128 | > 128 | > 128
[2H]C([2H])([2H])[n+]1ccc2c3ccccc3n(CC[N+](CC)(CC)C([2H])([2H])[2H])c2c1C.[I-].[I-] | > 128 | > 128 | > 128 | > 128 | > 128 | > 128
Cc1nccc2c3ccccc3n(CCCCCCn3c4ccccc4c4ccnc(C)c43)c12 | > 128 | > 128 | > 128 | > 128 | > 128 | > 128
[2H]C([2H])([2H])[n+]1ccc2c([nH]c3ccccc32)c1C.[I-] | > 128 | > 128 | > 128 | > 128 | > 128 | > 128
CCCC[n+]1ccc2c3ccccc3n(CC[N+](C)(C)CCCC)c2c1C.[Br-].[Br-] | 128 | > 128 | > 128 | > 128 | > 128 | 128
CCC[n+]1ccc2c3ccccc3n(CC[N+](C)(C)CCC)c2c1C.[Br-].[Br-] | > 128 | > 128 | > 128 | > 128 | > 128 | > 128
CCCC[n+]1ccc2c3ccccc3n(CCN(C)C)c2c1C.[Br-] | 128 | > 128 | > 128 | > 128 | > 128 | 128
CC[N+](C)(CC)CCn1c2ccccc2c2cc[n+](C)c(C)c21.[I-].[I-] | > 128 | > 128 | > 128 | > 128 | > 128 | > 128
CC[n+]1ccc2c3ccccc3n(CC[N+](CC)(CC)CC)c2c1C.[Br-].[Br-] | > 128 | > 128 | > 128 | > 128 | > 128 | > 128
[2H]C([2H])([2H])[n+]1ccc2c3ccccc3n(CC[N+](C)(C)C([2H])([2H])[2H])c2c1C.[I-].[I-] | > 128 | > 128 | > 128 | > 128 | > 128 | > 128
CCN(CC)CCn1c2ccccc2c2ccnc(C)c21 | 128 (≈ 455 µM) | 128 (≈ 455 µM) | 128 (≈ 455 µM) | 128 (≈ 455 µM) | > 128 | 128 (≈ 455 µM)
Cc1c2[nH]c3ccccc3c2cc[n+]1C.[I-] | > 128 | > 128 | > 128 | > 128 | > 128 | > 128
